{"source": "patent US20100040615A1", "about": "“Digalactolipidic Antigen Exposed on the Surface of Apicomplex Parasites, and Diagnostic and Therapeutic Use Thereof” (COMMISSARIAT A L'ENERGIE ATOMIQUE, priority 2007, published 2010)", "test": "Immunization of animals with purified galactolipid, sera tested for antibodies", "format": "in vivo, rabbits and rat", "details": "five immunizations, Freund's adjuvant, sera taken at D57", "protocol": "Two rabbits and one rat were immunized with purified DGDG ([…]), according to the following protocol: • a first immunization (D0) by multisite subcutaneous injection (total volume of 1 ml) of 0.5 mg of antigen in 0.5 ml of a solution of NaCl (0.9%), emulsified in 0.5 ml of complete Freund's adjuvant, • a second immunization (D10) by subcutaneous (1 ml) and intramuscular (0.5 ml) injection of 0.5 mg of antigen in 0.75 ml of a solution of NaCl (0.9%), emulsified in 0.75 ml of incomplete Freund's adjuvant, • a third immunization (D21) by subcutaneous (1 ml) and intramuscular (0.5 ml) injection of 0.5 mg of antigen in 0.75 ml of a solution of NaCl (0.9%), emulsified in 0.75 ml of incomplete Freund's adjuvant, • a fourth immunization (D36) by intramuscular (0.5 ml) and intravenous (0.5 ml) injection: 0.17 mg of antigen in 0.25 ml of a solution of NaCl (0.9%), emulsified in 0.25 ml of incomplete Freund's adjuvant, injected intramuscularly, and 0.33 mg of antigen in 0.5 ml of a solution of NaCl (0.9%), injected intravenously, and • a fifth immunization (D50) by intramuscular (0.5 ml) and intravenous (0.5 ml) injection: 0.17 mg of antigen in 0.25 ml of a solution of NaCl (0.9%), emulsified in 0.25 ml of incomplete Freund's adjuvant, injected intramuscularly, and 0.33 mg of antigen in 0.5 ml of a solution of NaCl (0.9%), injected intravenously. […]", "data": [{"substance": "1,2-diacyl-(α-D-galactopyranosyl-(1→6)-β-D-galactopyranosyl-(1′→3))-sn-glycerol [DGDG]", "values": [{"measurement": "induction of active serum (antibodies against the immunizing lipid)", "value": "made it possible to obtain active sera containing antibodies that recognize DGDG"}]}, {"substance": "monogalactosyldiacylglycerol [MGDG]", "values": [{"measurement": "induction of active serum (antibodies against the immunizing lipid)", "value": "did not make it possible to obtain active serum"}]}]}
